Measured values as given in article PMC4366844, “Biochemical and Pharmacological Characterizations of ESI-09 Based EPAC Inhibitors: Defining the ESI-09 “Therapeutic Window”” (Scientific Reports, 2015).
In brackets after ≈: the same amount, converted by molar mass. Several values for one entry are separate records, joined by “and”; a condition that tells them apart may be missing. Equal values may be shown once. Entries after “also recorded” stand apart in the source; their conditions may differ. Read-outs that look alike come from different tables or passages of the source.

Columns and labels:
EPAC2 [1] = conditions: cited from earlier work
EPAC2 [2] = molecular target: T1, EPAC2 (Mus musculus, UniProt Q9EQZ6); assay: Protein thermal denaturation assay (Sypro Orange), EPAC2
T1 construct: made in house
T1 sequence (Q9EQZ6 1-1011): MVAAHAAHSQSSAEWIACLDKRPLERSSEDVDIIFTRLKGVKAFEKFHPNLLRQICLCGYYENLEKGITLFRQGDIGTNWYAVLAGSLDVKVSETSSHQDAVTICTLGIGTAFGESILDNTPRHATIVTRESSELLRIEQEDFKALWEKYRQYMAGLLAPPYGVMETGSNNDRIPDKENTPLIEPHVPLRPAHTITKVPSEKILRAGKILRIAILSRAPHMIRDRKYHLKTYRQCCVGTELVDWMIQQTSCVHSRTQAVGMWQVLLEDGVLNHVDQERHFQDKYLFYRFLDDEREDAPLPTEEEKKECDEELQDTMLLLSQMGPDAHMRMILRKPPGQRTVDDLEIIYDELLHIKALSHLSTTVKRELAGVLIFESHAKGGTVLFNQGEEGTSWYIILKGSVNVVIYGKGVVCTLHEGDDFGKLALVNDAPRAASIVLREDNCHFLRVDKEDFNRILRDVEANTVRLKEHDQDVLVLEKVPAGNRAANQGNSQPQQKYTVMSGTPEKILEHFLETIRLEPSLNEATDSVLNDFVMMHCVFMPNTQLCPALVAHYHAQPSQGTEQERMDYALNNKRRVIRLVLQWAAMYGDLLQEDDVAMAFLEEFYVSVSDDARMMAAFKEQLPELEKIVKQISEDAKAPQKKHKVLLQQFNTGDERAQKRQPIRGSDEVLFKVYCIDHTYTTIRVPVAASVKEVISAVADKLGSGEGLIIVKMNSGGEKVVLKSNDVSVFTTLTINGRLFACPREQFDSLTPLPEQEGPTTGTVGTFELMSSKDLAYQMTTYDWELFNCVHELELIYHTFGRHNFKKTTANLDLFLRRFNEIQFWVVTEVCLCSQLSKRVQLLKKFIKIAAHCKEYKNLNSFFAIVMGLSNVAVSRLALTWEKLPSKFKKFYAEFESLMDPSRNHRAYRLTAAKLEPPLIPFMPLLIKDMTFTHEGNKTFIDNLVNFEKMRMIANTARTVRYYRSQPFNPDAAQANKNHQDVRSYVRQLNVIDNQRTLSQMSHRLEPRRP
Method: Thermal denaturation assay was performed using a BioRad CFX96 Touch^TM Real-Time PCR Detection system as described previously. […] Melting temperatures (Tm) were calculated by fitting the sigmoidal melt curve to the Boltzmann equation as described using GraphPad Prism, with R^2 values of >0.99[40].

[3] = tested on: ovalbumin-induced oral tolerance; conditions: mice, daily dose of 10 mg/kg IP or 50 mg/kg oral gavage; cited from earlier work
EPAC2 [4] = molecular target: T1, EPAC2; assay: 8-NBD-cAMP competition assay; assay type: binding
Method: Test compounds at various concentrations were added to the reaction mix, and fluorescence intensity signals from the 8-NBD probe before and after the addition of test compounds was monitored using a SpectaMaxM2 microplate reader (Molecular Devices, Silicon Valley, CA, USA) with excitation/emission wavelengths set at 470/540 nm.

[5] = tested on: pancreatic ductal adenocarcinoma; conditions: in vivo administration; cited from earlier work
EPAC2 [6] = molecular target: T1, EPAC2; assay: In vitro GEF activity assay (Rap1b-BODIPY-GDP), EPAC2; assay type: biochemical; conditions: for mode of inhibition toward cAMP: cAMP titration with 5 µM ESI-09 or 1 µM HJC0726
[7] = Solubility measurement by HPLC analysis; assay type: physicochemical
Method: ESI-09 and its analogs were synthesized following the recently reported synthetic procedures. The solubility of the selected compounds was measured by HPLC analysis following the reported protocol.

[8] = parameters: method as in Our recent studies; conditions: ref Our recent studies; cited from earlier work
EPAC1h 149-318 = molecular target: T2, EPAC1h 149-318 (Homo sapiens, UniProt O95398); assay: {15N,1H} HSQC NMR of EPAC1 cAMP binding domain
T2 construct: the CBD of human EPAC1 (aa. 149-318); made in house
T2 sequence (O95398 149-318 isoform O95398-3): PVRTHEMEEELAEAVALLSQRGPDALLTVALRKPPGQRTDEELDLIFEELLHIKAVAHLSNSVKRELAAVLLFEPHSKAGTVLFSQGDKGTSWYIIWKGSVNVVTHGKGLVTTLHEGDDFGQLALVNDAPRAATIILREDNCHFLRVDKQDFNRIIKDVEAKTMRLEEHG
From the text: In addition to the thermo-unfolding experiments, {^15N, ^1H} Heteronuclear Single Quantum Coherence (HSQC) spectra were acquired to characterize the interaction between ESI-09 and the CBD of human EPAC1 (aa. 149-318) and address whether ESI-09 acts as a non-specific denaturant. The {^15N, ^1H} chemical shifts serve as excellent sensors for protein structure and dynamics as they provide information about the local chemical environment surrounding the amides of every amino acid (except prolines) within the protein. EPAC1h (149-318) has already been extensively analyzed by NMR spectroscopy. It results in HSQC spectra with well-dispersed peaks, which are representative of a fully folded protein (Fig. 5A). […]
EPAC1h 149-318 was expressed and purified using previously documented protocols[24][25][26][27] and dialyzed into NMR buffer (50 mM Tris, 50 mM NaCl, 2 mM EDTA, 2 mM EGTA, 1 mM DTT and 0.02% NaN3, pH 7.6). […] Gradient- and sensitivity- enhanced {^15N, ^1H} heteronuclear single quantum coherence (HSQC) spectra with 128 (t1) and 1024 (t2) complex points and spectral widths of 31.82 and 14.06 ppm for the ^15N and ^1H dimensions, respectively, were recorded with 8 scans and a recycle delay of 1 s. […] All spectra were processed with NMRPipe[41] and analyzed in Sparky[42].

fatal rickettsioses = conditions: mice, daily dose of 10 mg/kg IP or 50 mg/kg oral gavage; cited from earlier work
full-length EPAC1 = molecular target: T3, full-length EPAC1 (Homo sapiens, UniProt O95398); assay: In vitro GEF activity assay (Rap1b-BODIPY-GDP), EPAC1; assay type: biochemical; conditions: vs ESI-09
T3 construct: made in house
T3 sequence (O95398 1-881 isoform O95398-3): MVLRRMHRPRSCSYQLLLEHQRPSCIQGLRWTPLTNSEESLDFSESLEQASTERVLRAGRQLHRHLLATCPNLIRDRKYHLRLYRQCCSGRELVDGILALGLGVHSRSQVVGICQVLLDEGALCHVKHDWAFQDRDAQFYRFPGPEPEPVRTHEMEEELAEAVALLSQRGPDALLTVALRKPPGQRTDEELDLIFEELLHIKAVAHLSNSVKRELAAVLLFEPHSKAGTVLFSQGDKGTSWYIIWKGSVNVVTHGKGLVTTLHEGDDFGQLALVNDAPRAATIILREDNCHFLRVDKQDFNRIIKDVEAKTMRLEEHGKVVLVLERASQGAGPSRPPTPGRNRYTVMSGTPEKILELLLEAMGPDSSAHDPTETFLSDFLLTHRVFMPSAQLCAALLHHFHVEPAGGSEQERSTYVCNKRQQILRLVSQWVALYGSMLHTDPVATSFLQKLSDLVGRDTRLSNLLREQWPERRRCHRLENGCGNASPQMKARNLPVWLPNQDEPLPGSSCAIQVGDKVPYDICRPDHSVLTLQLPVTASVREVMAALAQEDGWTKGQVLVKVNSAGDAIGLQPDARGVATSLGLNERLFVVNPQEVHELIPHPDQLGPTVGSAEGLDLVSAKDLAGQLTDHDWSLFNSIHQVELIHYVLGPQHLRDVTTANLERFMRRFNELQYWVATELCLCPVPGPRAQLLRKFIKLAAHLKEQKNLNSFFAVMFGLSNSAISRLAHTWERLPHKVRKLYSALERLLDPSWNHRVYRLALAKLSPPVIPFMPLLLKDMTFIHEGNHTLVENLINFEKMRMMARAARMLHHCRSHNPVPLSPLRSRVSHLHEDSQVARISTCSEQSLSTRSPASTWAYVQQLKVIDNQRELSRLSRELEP
From the text: The guanine nucleotide exchange activity of EPAC proteins can be biochemically determined using a coupled exchange assay, in which Rap1 loaded with a fluorescent GDP analog, 2′-/3′-O-(N′-methylanthraniloyl)guanosine-5′-O-diphosphate (MANT-GDP), is used as the substrate. The exchange of Rap1-bound MANT-GDP by free unlabeled GDP leads to a decrease in fluorescence as MANT-GDP contains an environment sensitive fluorophore, MANT, whose fluorescence intensity increases upon binding to Rap1. However, the MANT-GDP based GEF assay is not well suited for ESI-09 analogs because they absorb lights within the excitation emission wavelengths of the fluorophore.
Recombinant full-length human EPAC1, mouse EPAC2 and C-terminal truncated Rap1B(1-167) were purified as described previously.
In vitro EPAC GEF activity was measured as previously described with the exception that purified Rap1B(1-167) was loaded with BODIPY-GDP instead of MANT-GDP[39]. […] The exchange reaction was monitored using a Spectramax M2 Plate Reader (Molecular Devices) with the excitation and emission wavelengths set at 485 and 515 nm, respectively. […]

[9] = 50 nM EPAC2, 60 nM 8-NBD-cAMP, read-out: IC50, potency in competing with 8-NBD-cAMP binding to EPAC2
[10] = water, read-out: Solubility in water (converted)

In the case of `Cc1ccc(S(=O)(=O)c2c(C)cc(C)cc2C)cc1` [ESI-05], the EPAC isoform selectivity (EPAC2 [1]) is listed as “exclusively selective for EPAC2”.
In the case of `CC(C)(C)c1cc(C(=O)C(C#N)=NNc2cccc(Cl)c2)no1` [ESI-09, 3-[5-(tert-butyl)isoxazol-3-yl]-2-[2-(3-chlorophenyl) hydrazono] -3-oxopropanenitrile], the “effect on Tm of EPAC2” value (EPAC2 [2]; ESI-09 1-20 µM, no cAMP) is given as “didn't shift the Tm to lower temperature; also recorded: no significant difference in thermo-denaturation”, the “effect on Tm of EPAC2” value (EPAC2 [2]; ESI-09 in the presence of 100 µM cAMP) is given as “didn't lead to further changes in Tm” and the “effect on ovalbumin-induced oral tolerance” value [3] is given as “compromising ovalbumin-induced oral tolerance”. The IC50 (EPAC2 [4]; [9]) was 9 ± 1.2 µM, the “effect on pancreatic ductal adenocarcinoma invasion and metastasis” value [5] was “inhibits pancreatic ductal adenocarcinoma invasion and metastasis” and the “mode of inhibition toward cAMP” value (EPAC2 [6]) was “reversible competitive EPAC2 inhibitors”. For the same compound, the solubility ([7]; ethanol, organic solvent or mixture, ethanol, read-out: Solubility in ethanol (converted)) was 15000 µg/mL and 45300 µM, the solubility [7, 10] was 5.95 ± 0.83 µg/mL (≈ 18 µM) and the bioavailability [8] was “excellent bioavailability”. For the same compound, the “effect on HSQC spectrum of EPAC1h 149-318” value (EPAC1h 149-318; 50 μM ESI-09, 100 μM protein) was “Only minor chemical shift changes”, the “effect on HSQC spectrum of EPAC1h 149-318” value (EPAC1h 149-318; 500 μM ESI-09, 100 μM protein) was “almost every peak broadens beyond detection” and the “effect in fatal rickettsioses” value (fatal rickettsioses) was “protecting mice from fatal rickettsioses”.
Work on `CC(C)(C)c1cc(C(=O)/C(C#N)=N/Nc2ccccc2Cl)no1` [HJC0693] yielded an IC50 (EPAC2 [4]; [9]) of 28.3 ± 4 µM.
`CC(C)(C)c1cc(C(=O)/C(C#N)=N/Nc2ccc(Cl)cc2)no1` [HJC0694] gave an IC50 (EPAC2 [4]; [9]) of 26.5 ± 4.1 µM.
For `CC(C)(C)c1cc(C(=O)/C(C#N)=N/Nc2ccccc2)no1` [HJC0695], the IC50 (EPAC2 [4]) was 59.8 ± 9.4 µM.
`CC(C)(C)c1cc(C(=O)/C(C#N)=N/Nc2cc(Cl)ccc2Cl)no1` [HJC0696] gave an IC50 (EPAC2 [4]; [9]) of 7.3 ± 1.2 µM.
With `CC(C)(C)c1cc(C(=O)/C(C#N)=N/Nc2cc(Cl)cc(Cl)c2)no1` [HJC0726] the “potency relative to ESI-09 in inhibiting EPAC1” value (full-length EPAC1) was “five-fold more potent”, the IC50 (EPAC2 [4]; [9]) was 1.9 ± 0.3 µM and the “increase in potency relative to ESI-09 in the 8-NBD-cAMP competition assay” value (EPAC2 [4]; vs ESI-09) was 5 fold. The “mode of inhibition toward cAMP” value (EPAC2 [6]) was “reversible competitive EPAC2 inhibitors”, the “potency relative to ESI-09 in inhibiting EPAC2” value (EPAC2 [6]; vs ESI-09) was “five-fold more potent” and the solubility ([7]; ethanol, organic solvent or mixture, read-out: Solubility in ethanol (converted)) was 6800 µg/mL and 18600 µM. The solubility [7, 10] was 45.4 µg/mL and 124 µM.
In the case of `CC(C)(C)c1cc(C(=O)/C(C#N)=N/Nc2cccc(Cl)c2Cl)no1` [HJC0750], the IC50 (EPAC2 [4]; [9]) is reported as 35.6 ± 7.8 µM.
Work on `CC(C)(C)c1cc(C(=O)/C(C#N)=N/Nc2ccc(Cl)c(Cl)c2)no1` [HJC0777] yielded an IC50 (EPAC2 [4]; [9]) of 3 ± 0.6 µM.
With `Nc1ncnc2c1ncn2[C@@H]1O[C@@H]2COP(=O)(O)O[C@H]2[C@H]1O` [cAMP, reference compound] the “melting temperature Tm of EPAC2” value (EPAC2 [2]; in the presence of 100 µM cAMP (about 48°C without)) was “around 46 °C”.
